According to the METLIN SMRT retention time set (Domingo-Almenara et al. 2019):

Test: gradient 5% acetonitrile 3 min, to 50% in 2 min, to 85% in 15 min, held 3 min, 100 µL/min
Details: column: Zorbax Extend-C18 2.1 x 50 mm; eluents: water / acetonitrile, 0.1% formic acid
In short: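 Standards, all pure, were combined into mixtures of ~100 molecules and run at 100 μL/min on a Zorbax Extend-C18 column (2.1 × 50 mm, 1.8 μm) with water and acetonitrile, each containing 0.1% formic acid. A coupled quadrupole time-of-flight mass spectrometer operated in positive and negative ionization mode. Retention time values come from computationally picked adduct peaks, each inspected manually.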

Structure (SMILES)	RP-LC retention time
COc1ccc(-c2csc(NC(=O)/C=C/C(=O)O)n2)cc1	752 s
CC(C)NP(=O)(NC(C)C)OP(=O)(NC(C)C)NC(C)C	762 s
Cc1ccc(CNS(=O)(=O)c2c(-c3nnc(C)o3)c(C)n(C)c2C)o1	780 s
COCc1ncc(C)n1C1CCN(C(=O)c2ccc(Cc3c(C)noc3C)o2)C1 (stereo unspecified)	602 s
Cn1cc2c3c(cccc31)CN(C(=O)Nc1cc(Cl)ccc1Cl)CC2	1170 s
COc1ccc(N2CC(c3nc(-c4ccc(Br)cc4)no3)CC2=O)c(OC)c1 (stereo unspecified)	1040 s
COC(=O)C1=C(C)N(C(C)C)C(=O)C1(NC(=O)c1ccccc1OC)C(F)(F)F (stereo unspecified)	1010 s
Cc1cc(N2CCC(NC(=O)Nc3ccccc3Cl)C2=O)ccc1F (stereo unspecified)	878 s
CSc1ccc(CNC(=O)C2CCCN(c3ncnc4nn(-c5ccc(C)cc5)cc34)C2)cc1 (stereo unspecified)	750 s
O=C(Cc1nnc(-c2ccccc2)o1)NCc1ccccn1	577 s
O=C(Nc1ccc(F)cc1F)c1cc2n(n1)CCCC2	912 s
O=Cc1cn(Cc2ccc(Cl)cc2)c2ccccc12	968 s
COCC1CN(C2CCC2)CC12CCN(C(=O)c1cccs1)CC2 (stereo unspecified)	602 s
COc1cc(-c2noc(Cc3nnc(-c4ccc(F)cc4)o3)n2)cc(OC)c1OC	916 s
COc1ccc(N2CCN(C(=O)c3cn4ccc(C)cc4n3)CC2)cc1	615 s
COc1ccc(CCC(=O)NC(C)C(=O)Nc2nc3ccccc3[nH]2)cc1 (stereo unspecified)	656 s
Cn1cc(S(=O)(=O)Nc2ccc(F)c(F)c2)c2cccnc21	790 s
COc1cc(OC)c(NC(=O)N2CCC3(CC2)N=C(c2cccc(F)c2)C(=O)N3)cc1Cl	886 s
CCC(=O)N1CCc2cc(-c3ccc(C(=O)N4CCN(c5ncccn5)CC4)cc3)ccc21	855 s
CCn1c(=O)sc2cc(S(=O)(=O)N3CCC(C(=O)Nc4cc(C)ccc4C)CC3)ccc21	932 s
Cc1ccc(NS(=O)(=O)c2cc(-c3[nH]ncc3C(=O)N3CCOCC3)oc2C)cc1F	695 s
CCc1ccc(NS(=O)(=O)c2cc(-c3[nH]ncc3C(=O)N3CCOCC3)oc2C)cc1	721 s
COc1ccc(S(=O)(=O)N2CCC(c3noc(-c4ccccn4)n3)C2)cc1 (stereo unspecified)	802 s
Cc1nnsc1C(=O)OCc1cc(-c2ccco2)on1	850 s
COc1cccc(NC(=O)CSc2cc(N3CCN(c4ccccc4OC)CC3)ncn2)c1	938 s

Further lines, results first:

RP-LC retention time	Structure (SMILES)
1320 s	CCN(C(=O)c1ccco1)c1nc(-c2ccc(Br)cc2)cs1
700 s	COc1ccc(-c2nnc(SCc3cc(=O)n4ccsc4n3)o2)cc1OC
1030 s	COC(=O)c1ccc2c(=O)n(-c3ccccc3)c(N3CCSCC3)nc2c1
783 s	Cc1cc(C)cc(NC(=O)C2CCCN(c3cc(=O)n(C)c(=O)n3C)C2)c1 (stereo unspecified)
666 s	CCOc1ccc(NC(=O)Cn2c(CC)nc3c(c2=O)CN(Cc2ccccc2)CC3)cc1
606 s	Cc1ccc(C(=O)N2CCc3[nH]cnc3C23CCCCC3)s1
1060 s	CC(C)NC(=O)Cn1cnc2nc(N3CCC(C(=O)NC4CC4)CC3)sc2c1=O
898 s	Cc1cc(=O)n(CCOc2ccc(F)cc2)c(N2CCSCC2)n1
573 s	COc1ccc(OCC(=O)N2CCN(c3nccn3-c3ccccc3F)CC2)cc1
758 s	CCn1cc(C)c(C(=O)O)c1CC(=O)NCc1ccc(SC)cc1
997 s	CCCS(=O)(=O)N1CC(=O)N(c2ccccc2F)C(C)(C(=O)NC2CCCCCCC2)C1 (stereo unspecified)
838 s	CCc1ccc(C2=C(C)C(N3CCCN(C(=O)c4ccco4)CC3)=NS2(=O)=O)cc1
1030 s	COc1ccc(OC)c(NC(=O)c2sc(-c3cn(C(C)C)c4ncccc34)nc2C)c1
640 s	COC(=O)c1c(-c2cccc(F)c2)noc1NCCN1CCCC1
769 s	COCCNC(=O)C1CCCCN1S(=O)(=O)c1ccc(F)cc1 (stereo unspecified)
728 s	CCN1CCN(C2CCN(C(=O)c3cc(C)cc(C)c3)CC2)C1=O
1010 s	Cc1ccc(NC(=O)CSc2nnc3c4cc(-c5ccc(Cl)cc5)nn4ccn23)cc1F
1040 s	CCCC(=O)N1CCc2c([nH]c3ccc(OC)cc23)C1c1ccc(F)cc1 (stereo unspecified)
897 s	O=C1CCC(CCNS(=O)(=O)c2cc(Cl)ccc2Cl)CCN1CC1CC1 (stereo unspecified)
663 s	CCc1c(C2CCN(C(=O)c3ccc(OC)nc3)CC2)noc1N
631 s	CCCn1c(C(=O)NCCc2ccc(S(N)(=O)=O)cc2)cc2c(=O)n(C)c(=O)n(C)c21
